From US7579376B2, “Geranyl compounds” (Ohgen Research Laboratories, Ltd., priority 2002, dated 2009)

Columns and labels:
[1] = test system: HuH-7 cells (dendriform cell strain of human hepatoma); assay: Measurement of antitumor effect: HuH-7 carcinoma pieces hypodermically implanted in nude mice, carcinomas weighed after administration; assay type: in vivo; settings: Huh-7, ip, 504 h, carcinoma weight relative to control group (100%), 250 μg/mouse intraperitoneally in corn oil once per day for 3 weeks, starting a week after implantation
Procedure: Measurement of Antitumor Effect
(§1) Carcinoma of HuH-7 cells (dendriform cell strain of human hepatoma) hypodermically implanted or subimplanted in the backs of 5-weeks old female nude mice (BALB/c, Ninox) was aseptically taken out and crushed into 5×5 mm sized pieces in a phosphate buffer solution (PBS), a piece of which then being hypodermically implanted in the backs of the nude mice.
(§2) Each test substance was dissolved in corn oil, and the solution was intraperitoneally administered to the nude mice consecutively once per day at a rate of 250 μg/mouse for 3 weeks, starting from a week after the implantation. After termination of the administration, the carcinomas were taken out and weighed to calculate the antitumor effect and the mice' weight loss by the following equations. For the test six mice per group were used, and the group administered with the solvent (corn oil) alone was made the control group:
(§3) Evaluations of antitumor effect and weight loss were conducted according to the following standard, where the control group values were held to be 100%.
• −: >100%, +/−: 100˜75%, +: 75˜50%, ++: 50˜25%, +++: 25˜0% Weight Loss • −: >110%, +/−: 110˜100%, +: 100˜95%, ++: 95˜90%, +++: <90% Death Rate (Death Rate During the Test Period) • −: none • +/−: death occurred with high concentration administration (500 μg/mouse) • +: 1-3 mice dead • ++: 3-5 mice dead • +++: all 6 mice dead Synthetic Evaluation • −: weak antitumor effect and very strong toxicity against host mice • +/−: weak antitumor effect recognizable and toxicity against host mice also observable • +: a fixed level of antitumor effect observable but toxicity against host mice also strong • ++: strong antitumor effect observed and toxicity against host mice week • +++: strong antitumor effect observed and no toxicity against host mice

[2] = Toxicity against host mice (weight loss, death rate) in the HuH-7 antitumor test; assay type: in vivo; settings: 250 μg/mouse intraperitoneally once per day for 3 weeks, six mice per group; for Toxicity Death rate: death rate during the test period; for Toxicity Weight loss: mouse weight relative to control group (100%)
Procedure: as §1, §2, §3

| SMILES | response vs control in vivo at 0.25 mg [1] | Toxicity Death rate [2] | Toxicity Weight loss [2] |
| --- | --- | --- | --- |
| CC(C)=CCC/C(C)=C/C(=O)NC1C(O)OC(CO)C(O)C1O (stereo not drawn) | 0 to 25% | − | + (100˜95%) |
| CC(O)(CCO)CC(=O)NC1C(O)OC(CO)C(O)C1O (stereo not drawn) | 25 to 50% | − | +/− (110˜100%) |
| CC(C)=CCC/C(C)=C/CNC(=O)/C=C/C(=O)NC/C=C(\C)CCC=C(C)C [N,N′-digeranylfumaric diamide, N,N′-digeranylfumaric Diamide] | 25 to 50% | − | +/− (110˜100%) |
| CC(C)=CCC/C(C)=C/CNC(=O)CC(O)C(=O)NC/C=C(\C)CCC=C(C)C (stereo not drawn) [N,N′-digeranylmalic diamide, N,N′-digeranylmalic Diamide] | 50 to 75% | − | + (100˜95%) |
| CC(=O)N[C@@H](Cc1ccc(O)cc1)C(=O)NC/C=C(\C)CCC=C(C)C [N-acetyltyrosine geranylamide, N-acetyltyrosine Geranylamide] | 50 to 75% | − | +/− (110˜100%) |
| CC(C)=CCC/C(C)=C/C(=O)NC1C(O)OC(C)C(O)C1O (stereo not drawn) [N-fucosegeranamide] | 25 to 50% | − | +/− (110˜100%) |
| CC(C)=CCC/C(C)=C/C(=O)N[C@@H](Cc1ccc(O)cc1)C(=O)O [N-geranoyltyrosine] | 25 to 50% | − | +/− (110˜100%) |
| CC(C)=CCC/C(C)=C/CNC(=O)C1OC(O)C(O)C(O)C1O (stereo not drawn) [N-geranyl galacturonamide, N-geranylgalacturonamide] | 0 to 25% | +/− | +/− (110˜100%) |
| CC(=O)C(=O)Nc1ccc(C(=O)NC/C=C(\C)CCC=C(C)C)cc1 [N-geranyl-4-pyruvoaminobenzamide, N-geranyl-p-pyruvoaminobenzamide] | 25 to 50% | − | − (>110%) |
| CC(C)=CCC/C(C)=C/CNC(=O)[C@@H](N)Cc1ccc(O)cc1 [Tyrosine geranylamide, Tyrosine Geranylamide] | 50 to 75% | − | +/− (110˜100%) |
